Measured values published in BigSolDB 2.1.

## Cc1cc(C)c(C(=O)P(=O)(c2ccccc2)c2ccccc2)c(C)c1
In acetone, 273.15 K
  solubility (mole fraction): 0.0685
In acetone, 278.15 K
  solubility (mole fraction): 0.0844
In acetone, 283.15 K
  solubility (mole fraction): 0.101
In acetone, 288.15 K
  solubility (mole fraction): 0.12
In acetone, 293.15 K
  solubility (mole fraction): 0.143
In acetone, 298.15 K
  solubility (mole fraction): 0.169
In acetone, 303.15 K
  solubility (mole fraction): 0.197
In acetone, 308.15 K
  solubility (mole fraction): 0.232
In acetonitrile, 273.15 K
  solubility (mole fraction): 0.0242
In acetonitrile, 278.15 K
  solubility (mole fraction): 0.0312
In acetonitrile, 283.15 K
  solubility (mole fraction): 0.0482
In acetonitrile, 288.15 K
  solubility (mole fraction): 0.0687
In acetonitrile, 293.15 K
  solubility (mole fraction): 0.101
In acetonitrile, 298.15 K
  solubility (mole fraction): 0.144
In acetonitrile, 303.15 K
  solubility (mole fraction): 0.197
In acetonitrile, 308.15 K
  solubility (mole fraction): 0.271
In ethanol, 273.15 K
  solubility (mole fraction): 0.0761
In ethanol, 278.15 K
  solubility (mole fraction): 0.0895
In ethanol, 283.15 K
  solubility (mole fraction): 0.107
In ethanol, 288.15 K
  solubility (mole fraction): 0.13
In ethanol, 293.15 K
  solubility (mole fraction): 0.154
In ethanol, 298.15 K
  solubility (mole fraction): 0.184
In ethanol, 303.15 K
  solubility (mole fraction): 0.218
In ethanol, 308.15 K
  solubility (mole fraction): 0.266
In ethyl acetate, 273.15 K
  solubility (mole fraction): 0.043
In ethyl acetate, 278.15 K
  solubility (mole fraction): 0.0529
In ethyl acetate, 283.15 K
  solubility (mole fraction): 0.0621
In ethyl acetate, 288.15 K
  solubility (mole fraction): 0.0819
In ethyl acetate, 293.15 K
  solubility (mole fraction): 0.102
In ethyl acetate, 298.15 K
  solubility (mole fraction): 0.126
In ethyl acetate, 303.15 K
  solubility (mole fraction): 0.16
In ethyl acetate, 308.15 K
  solubility (mole fraction): 0.194
In isobutanol, 273.15 K
  solubility (mole fraction): 0.0761
In isobutanol, 278.15 K
  solubility (mole fraction): 0.0882
In isobutanol, 283.15 K
  solubility (mole fraction): 0.109
In isobutanol, 288.15 K
  solubility (mole fraction): 0.133
In isobutanol, 293.15 K
  solubility (mole fraction): 0.159
In isobutanol, 298.15 K
  solubility (mole fraction): 0.187
In isobutanol, 303.15 K
  solubility (mole fraction): 0.22
In isobutanol, 308.15 K
  solubility (mole fraction): 0.256
In isopropanol, 273.15 K
  solubility (mole fraction): 0.0262
In isopropanol, 278.15 K
  solubility (mole fraction): 0.0366
In isopropanol, 283.15 K
  solubility (mole fraction): 0.0544
In isopropanol, 288.15 K
  solubility (mole fraction): 0.0755
In isopropanol, 293.15 K
  solubility (mole fraction): 0.11
In isopropanol, 298.15 K
  solubility (mole fraction): 0.158
In isopropanol, 303.15 K
  solubility (mole fraction): 0.21
In isopropanol, 308.15 K
  solubility (mole fraction): 0.276
In methanol, 273.15 K
  solubility (mole fraction): 0.11
In methanol, 278.15 K
  solubility (mole fraction): 0.125
In methanol, 283.15 K
  solubility (mole fraction): 0.145
In methanol, 288.15 K
  solubility (mole fraction): 0.172
In methanol, 293.15 K
  solubility (mole fraction): 0.195
In methanol, 298.15 K
  solubility (mole fraction): 0.233
In methanol, 303.15 K
  solubility (mole fraction): 0.272
In methanol, 308.15 K
  solubility (mole fraction): 0.298
In methyl acetate, 273.15 K
  solubility (mole fraction): 0.0504
In methyl acetate, 278.15 K
  solubility (mole fraction): 0.0616
In methyl acetate, 283.15 K
  solubility (mole fraction): 0.0767
In methyl acetate, 288.15 K
  solubility (mole fraction): 0.0963
In methyl acetate, 293.15 K
  solubility (mole fraction): 0.12
In methyl acetate, 298.15 K
  solubility (mole fraction): 0.149
In methyl acetate, 303.15 K
  solubility (mole fraction): 0.186
In methyl acetate, 308.15 K
  solubility (mole fraction): 0.229
In n-butanol, 273.15 K
  solubility (mole fraction): 0.0795
In n-butanol, 278.15 K
  solubility (mole fraction): 0.092
In n-butanol, 283.15 K
  solubility (mole fraction): 0.116
In n-butanol, 288.15 K
  solubility (mole fraction): 0.139
In n-butanol, 293.15 K
  solubility (mole fraction): 0.162
In n-butanol, 298.15 K
  solubility (mole fraction): 0.2
In n-butanol, 303.15 K
  solubility (mole fraction): 0.236
In n-butanol, 308.15 K
  solubility (mole fraction): 0.271
In n-propanol, 273.15 K
  solubility (mole fraction): 0.0827
In n-propanol, 278.15 K
  solubility (mole fraction): 0.0983
In n-propanol, 283.15 K
  solubility (mole fraction): 0.118
In n-propanol, 288.15 K
  solubility (mole fraction): 0.139
In n-propanol, 293.15 K
  solubility (mole fraction): 0.168
In n-propanol, 298.15 K
  solubility (mole fraction): 0.196
In n-propanol, 303.15 K
  solubility (mole fraction): 0.226
In n-propanol, 308.15 K
  solubility (mole fraction): 0.262
